The values that follow come from patent US20260374766A1, “METHODS FOR TREATING CANCER” (Antares Therapeutics, Inc., priority 2022, published 2026).

Experiment [1] addresses T1, p53 Y220C mutant protein (amino acid residues 94-293) (Homo sapiens, UniProt P04637, Y220C).
T1 construct: p53 Y220C mutant protein (amino acid residues 94-293)
Put plainly: Surface Plasmon Resonance (SPR) assay, Kd_kinetic. In kind it is binding. To be noted: SPR, kinetic KD, p53 Y220C; read-out: SPR P53 Y220C KD kinetic. Summed up: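 Binding measured by SPR on a Biacore 8K in running buffer of 50 mM Tris pH 7.5, 100 mM NaCl, 1 mM DTT, 0.01% Brij35, 0.05% Tween-20, 1% DMSO.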

Experiment [2] relates to H1299 p53 R273H. Kind of experiment: Cell Proliferation Assay (CellTiter-Glo, CTG), H1299 p53 R273H (NClH1299-inducible p53 R273H). Particulars: Homo sapiens, NCI-H1299, 120 h, CellTiter-Glo, H1299 p53 R273H, 5 days. It is filed as cell-based. The gist of the method: (§1)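 Cells seeded at 250-500 per well and exposed to compound for 5 days. Viability read by CellTiter-Glo luminescence after 10 min at room temperature; IC50 calculated. H1299 lines carry Tet-One inducible p53 mutant constructs introduced by lentiviral transduction.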

The subject of experiment [3] is NUGC3 p53 Y220C. Kind of experiment: Cell Proliferation Assay (CellTiter-Glo, CTG), NUGC3 p53 Y220C. It is filed as cell-based. Particulars: Homo sapiens, NUGC-3, 120 h, CellTiter-Glo, NUGC3 p53 Y220C, 5 days. Summed up: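 NClH1299 lines stably transduced with Tet-inducible p53 Y220C or R273H, plus NUGC3, were treated with compound for 5 days at 250-500 cells/well. IC50 derived from CellTiter-Glo luminescent signal after 10 min room-temperature incubation.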
For orientation: Cellular ATP, detected with luciferase, serves as a proxy for viable cell number.

For experiment [4], the target named is T1, p53 Y220C mutant protein (amino acid residues 94-293). Kind of experiment: Thermal Shift Assay (TSA), dTM. In kind it is binding. Particulars: thermal shift; for ΔTm at 100 µM: 100 uM compound, read-out: TSA P53 Y220C dTM (100 uM); for ΔTm at 10 µM: 10 uM compound, read-out: TSA P53 Y220C dTM (10 uM). The gist of the method:
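Recombinant p53 Y220C core (residues 94-293) at 5 μM was incubated with 10 μM or 100 μM compound for 3 hours at 20 °C in 20 mM HEPES pH7.4, 100 mM NaCl, 0.01% Pluronic F-127, 1% DMSO with 400-fold diluted Sypro Orange. Melting was followed from 30 °C to 50 °C at 0.03 °C/second, and TM came from a Boltzmann two-state fit.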

The target of experiment [5] is p53 Y220C (Homo sapiens, UniProt P04637, Y220C). Put plainly: Luciferase Reporter Assay (Luc), p53 response element, NClH1299 cells with inducible p53 Y220C. It is filed as cell-based. Particulars: luciferase reporter, NClH1299 inducible p53 Y220C, 6 hour; for Emax: 10 uM tool compound as positive control; for AC50: read-out: Luc P53 Y220C AC50. The gist of the method:
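Luminescence readout (One-Glo, 5 min shaking at RT, read at once) after 6 h compound exposure; cells pre-induced 24 h with 0.5 ug/mL doxycycline, 5,000/well.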
Background: In a reporter assay the amount or activity of a reporter protein is the signal.

Experiment [6] has as its system H1299 p53 Y220C. Kind of experiment: Cell Proliferation Assay (CellTiter-Glo, CTG), H1299 p53 Y220C (NClH1299-inducible p53 Y220C). In kind it is cell-based. To be noted: Homo sapiens, NCI-H1299, 120 h, CellTiter-Glo, H1299 p53 Y220C, 5 days. The gist of the method:
as §1

Each structure is given as a SMILES string. Bounds are passed on as bounds.

As a reminder, the Kd is the equilibrium constant for the complex coming apart. What is called IC50 is the midpoint of a concentration-inhibition curve. Read a low IC50 as higher potency. One may read the Emax as the size of the effect at its maximum, as opposed to the concentration needed. Usually AC50 stands for the concentration at which the activity in the assay is half-maximal.

Take `COc1cc(C(=O)N2CCC2)ccc1NCC#Cc1nc2c(N[C@@H]3CCN(C)C[C@@H]3F)cccn2c1SC(F)(F)F` [Example 87, (3S,4R)—N-[2-(3-{[4-(azetidine-1-carbonyl)-2-methoxyphenyl]amino}prop-1-yn-1-yl)-3-[(trifluoromethyl)sulfanyl]imidazo[1,2-a]pyridin-8-yl]-3-fluoro-1-methylpiperidin-4-amine]: the Kd in experiment [1] is below 10 nM. Further, the IC50 is 8 to 10 µM in experiment [2], below 750 nM in experiment [3] and below 750 nM in experiment [6]. The ΔTm at 100 µM in experiment [4] is at least 10 °C. Moreover, in experiment [5], the Emax fell in the range of 80 to 90%. For the same molecule, in experiment [5], the AC50 was below 750 nM.
Regarding `COc1cc(C(=O)N(C)C)ccc1NCC#Cc1nc2c(N[C@@H]3CCN(C)C[C@@H]3F)cccn2c1SC(F)(F)F` [Example 88, 4-{[3-(8-{[(3S,4R)-3-fluoro-1-methylpiperidin-4-yl]amino}-3-[(trifluoromethyl)sulfanyl]imidazo[1,2-a]pyridin-2-yl)prop-2-yn-1-yl]amino}-3-methoxy-N, N-dimethylbenzamide], the Kd in experiment [1] is below 10 nM. This molecule yielded an IC50 in experiment [2] of 8 to 10 µM. In experiment [3], the IC50 is below 750 nM. Moreover, in experiment [4], the ΔTm at 10 µM is at least 10 °C and the ΔTm at 100 µM was at least 10 °C. In experiment [5], the Emax lay in the range of 80 to 90% and the AC50 is below 750 nM. In experiment [6], this molecule gave an IC50 below 750 nM.
For the molecule `COc1cc(C(=O)NC(C)C)ccc1NCC#Cc1nc2c(N[C@@H]3CCN(C)C[C@@H]3F)cccn2c1SC(F)(F)F` [Example 89, 4-{[3-(8-{[(3S,4R)-3-fluoro-1-methylpiperidin-4-yl]amino}-3-[(trifluoromethyl)sulfanyl]imidazo[1,2-a]pyridin-2-yl)prop-2-yn-1-yl]amino}-N-isopropyl-3-methoxybenzamide], the Kd in experiment [1] was below 10 nM. Also, the IC50 in experiment [2] is 8 to 10 µM; in experiment [3], below 750 nM; in experiment [6], below 750 nM. Further, in experiment [4], the ΔTm at 100 µM is at least 10 °C. This molecule also gave an Emax in experiment [5] of 80 to 90%. Moreover, the AC50 in experiment [5] is below 750 nM.
Turning to `CNC(=O)c1ccc(NCC#Cc2nc3c(N[C@@H]4CCN(C)C[C@@H]4F)cccn3c2CC(F)(F)F)c(OC)n1` [Example 92, 5-{[3-(8-{[(3S,4R)-3-fluoro-1-methylpiperidin-4-yl]amino}-3-(2,2,2-trifluoroethyl)imidazo[1,2-a]pyridin-2-yl)prop-2-yn-1-yl]amino}-6-methoxy-N-methylpyridine-2-carboxamide], the Kd in experiment [1] was below 10 nM. Further, the IC50 in experiment [2] is 5 to 8 µM; in experiment [3], below 750 nM; in experiment [6] it was below 750 nM. Moreover, the ΔTm at 100 µM in experiment [4] lay in the range of 5 to 10 °C. Besides, the Emax in experiment [5] is 80 to 90%. In addition, the AC50 in experiment [5] was below 750 nM.
Regarding `CNC(=O)c1ccc(NCC#Cc2nc3c(N[C@@H]4CCN(C)C[C@@H]4F)cccn3c2SC(F)(F)F)c(OC)n1` [Example 93, 5-{[3-(8-{[(3S,4R)-3-fluoro-1-methylpiperidin-4-yl]amino}-3-[(trifluoromethyl)sulfanyl]imidazo[1,2-a]pyridin-2-yl)prop-2-yn-1-yl]amino}-6-methoxy-N-methylpyridine-2-carboxamide], in experiment [1], the Kd is below 10 nM. Besides, the results for the IC50 in experiment [2], in experiment [3] and in experiment [6] were 5 to 8 µM, below 750 nM and below 750 nM, respectively. Moreover, the ΔTm at 100 µM in experiment [4] is at least 10 °C. This molecule showed an Emax in experiment [5] above 90%. For the same molecule, the AC50 in experiment [5] is below 750 nM.
As to `CNC(=O)c1ccc(NCC#Cc2nc3c(N[C@@H]4CCN(C)C[C@@H]4F)cccn3c2SC(F)(F)F)cn1` [Example 94, 5-{[3-(8-{[(3S,4R)-3-fluoro-1-methylpiperidin-4-yl]amino}-3-[(trifluoromethyl)sulfanyl]imidazo[1,2-a]pyridin-2-yl)prop-2-yn-1-yl]amino}-N-methylpyridine-2-carboxamide], in experiment [1], the dissociation constant (Kd) was below 10 nM. The IC50 in experiment [2] is at least 10 µM; in experiment [3], below 750 nM; in experiment [6], below 750 nM. In addition, the ΔTm at 10 µM in experiment [4] was at least 10 °C. Also, in experiment [4], the ΔTm at 100 µM was at least 10 °C. Moreover, in experiment [5], the Emax is above 90%. In experiment [5], the AC50 is below 750 nM.
With `COc1cc2c(cc1NCC#Cc1nc3c(N[C@@H]4CCN(C)C[C@@H]4F)cccn3c1SC(F)(F)F)CNC2=O` [Example 96, 5-{[3-(8-{[(3S,4R)-3-fluoro-1-methylpiperidin-4-yl]amino}-3-[(trifluoromethyl)sulfanyl]imidazo[1,2-a]pyridin-2-yl)prop-2-yn-1-yl]amino}-6-methoxy-2,3-dihydroisoindol-1-one], the Kd in experiment [1] was below 10 nM. Further, in experiment [2], the IC50 lay within 5 to 8 µM. For the same molecule, the IC50 in experiment [3] is below 750 nM. In experiment [4], the ΔTm at 10 µM was at least 10 °C and the ΔTm at 100 µM is at least 10 °C. For the same molecule, in experiment [5], the Emax fell in the range of 80 to 90% and the AC50 is below 750 nM. Besides, the IC50 in experiment [6] was below 750 nM.
`CNC(=O)c1ccc(NCC#Cc2nc3c(N[C@@H]4CCN(C)C[C@@H]4F)cccn3c2C(F)(F)F)c(OC)c1` [Example 97, 4-{[3-(8-{[(3S,4R)-3-fluoro-1-methylpiperidin-4-yl]amino}-3-(trifluoromethyl)imidazo [1,2-a]pyridin-2-yl)prop-2-yn-1-yl]amino}-3-methoxy-N-methylbenzamide]: the Kd in experiment [1] was in the range of 100 to 1000 nM. Moreover, the IC50 is at least 10 µM in experiment [2], above 3000 nM in experiment [3] and above 3000 nM in experiment [6]. The ΔTm at 100 µM in experiment [4] is 5 to 10 °C. For the same molecule, the Emax in experiment [5] is below 70%. Besides, the AC50 in experiment [5] is above 3000 nM.
For `CNC(=O)c1ccc(NCC#Cc2nc3c(N[C@@H]4CCNC[C@@H]4F)cccn3c2SC(F)(F)F)c(OC)c1` [Example 100, 4-{[3-(8-{[(3S,4R)-3-fluoropiperidin-4-yl]amino}-3-[(trifluoromethyl)sulfanyl]imidazo[1,2-a]pyridin-2-yl)prop-2-yn-1-yl]amino}-3-methoxy-N-methylbenzamide], the Kd in experiment [1] is below 10 nM. In addition, the IC50 was 5 to 8 µM in experiment [2], below 750 nM in experiment [3] and below 750 nM in experiment [6]. Moreover, in experiment [4], the ΔTm at 10 µM is at least 10 °C. Besides, the ΔTm at 100 µM in experiment [4] is at least 10 °C. In addition, in experiment [5], the Emax is 80 to 90%. Besides, the concentration at half-maximal activity (AC50) in experiment [5] is below 750 nM.
With `CNC(=O)c1ccc(NCC#Cc2nc3c(N[C@@H]4CCOC[C@@H]4F)cccn3c2SC(F)(F)F)c(OC)c1` [Example 101, 4-{[3-(8-{[(3R,4R)-3-fluorooxan-4-yl]amino}-3-[(trifluoromethyl)sulfanyl]imidazo[1,2-a]pyridin-2-yl)prop-2-yn-1-yl]amino}-3-methoxy-N-methylbenzamide], the Kd in experiment [1] is below 10 nM. In addition, the results for the IC50 in experiment [2], in experiment [3] and in experiment [6] were at least 10 µM, below 750 nM and below 750 nM, respectively. The ΔTm at 10 µM in experiment [4] lay in the range of 5 to 10 °C. In addition, in experiment [4], the ΔTm at 100 µM was at least 10 °C. This molecule returned an Emax in experiment [5] of 80 to 90%. Also, in experiment [5], the AC50 is below 750 nM.
With `CNC(=O)c1ccc(NCC#Cc2nc3c(N[C@@H]4CNC[C@@H]4F)cccn3c2SC(F)(F)F)c(OC)c1` [Example 102, 4-{[3-(8-{[(3R,4S)-4-fluoropyrrolidin-3-yl]amino}-3-[(trifluoromethyl)sulfanyl]imidazo[1,2-a]pyridin-2-yl)prop-2-yn-1-yl]amino}-3-methoxy-N-methylbenzamide], in experiment [1], the Kd was below 10 nM. Besides, the IC50 in experiment [2] was at least 10 µM. In experiment [3], this molecule displayed an IC50 below 750 nM. In experiment [4], the ΔTm at 10 µM is at least 10 °C and the ΔTm at 100 µM is at least 10 °C. Moreover, in experiment [5], the Emax is 70 to 80% and the AC50 is below 750 nM. For the same molecule, the IC50 in experiment [6] was below 750 nM.
For the molecule `CNC(=O)c1ccc(NCC#Cc2nc3c(N[C@@H]4CN(C)C[C@@H]4F)cccn3c2SC(F)(F)F)c(OC)c1` [Example 103, 4-{[3-(8-{[(3R,4S)-4-fluoro-1-methylpyrrolidin-3-yl]amino}-3-[(trifluoromethyl)sulfanyl]imidazo[1,2-a]pyridin-2-yl)prop-2-yn-1-yl]amino}-3-methoxy-N-methylbenzamide], the Kd in experiment [1] was below 10 nM. This molecule returned an IC50 in experiment [2] of at least 10 µM. Moreover, the IC50 in experiment [3] is below 750 nM. In experiment [4], the ΔTm at 10 µM was at least 10 °C and the ΔTm at 100 µM was at least 10 °C. Moreover, in experiment [5], the Emax was in the range of 80 to 90% and the AC50 is below 750 nM. Also, the IC50 in experiment [6] was below 750 nM.
